Like-named read-outs stand apart in the source and are kept apart here. Ends that are not written are not given here. Peptide text beside a SMILES is read from it. * marks the point of attachment. 5FAM = O=C1OC2(c3ccc(O)cc3Oc3cc(O)ccc32)c2ccc(C(=O)*)cc21
Experiments:
[1] = molecular target: T1, Epsilon protein (His6-Epsilon) (Streptococcus pyogenes, UniProt Q57231); experiment: Fluorescence polarization (FP) direct binding assay of fluorescein-labeled peptides to Epsilon
T1 construct: His6 (N); made in house; host or cells: E. coli BL21 (DE3)
T1 sequence (Q57231 1-90): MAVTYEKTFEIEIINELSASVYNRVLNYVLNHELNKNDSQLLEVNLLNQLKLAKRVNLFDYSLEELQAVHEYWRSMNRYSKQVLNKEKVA
Method: Binding affinities of the fluorescein-labeled peptides Fluo-(I–III) with Epsilon protein were determined in a fluorescence polarization (FP) assay. For the purpose, 10 nM solutions of each fluorescein-labeled peptide containing different concentrations of Epsilon (from 5 nM to 7.5 µM) were irradiated with polarized light at the excitation wavelength of 470 nm and the polarization of the emitted light was recorded in mP at […] (see Section 4).
Figure 3 Dose-response curve for the binding of Fluo-(I–II) to the Epsilon protein. The fluorescent-labeled peptides Fluo-(I–II) at a concentration of 10 nM were treated with increasing concentrations of Epsilon (from 0.05 nM to 2.5 µM) in 10 mM HEPES assay buffer, pH 7.5, with 0.1% Tween-20. Values are plotted as the means ± standard deviation (n = 3) from three independent experiments.
For fluorescence polarization measurements, peptides were dissolved in DMSO at 10 mM and diluted in 10 mM HEPES (pH 7.5) containing 0.1% Tween-20. The assay was conducted on untreated black 384-well microtiter plates (low volume, non-binding surface, round bottom, non-sterile black polystyrene, Corning B.V. Life Sciences, Nr. 3676, Kennebunk, ME, USA) in a final volume of 10 µL, using 10 mM HEPES (pH 7.5) with 0.1% Tween-20 as a buffer. The final DMSO proportion in the assay was less than 0.1%. The measurements were performed on a SAFIRE II (Tecan) microplate reader, using an excitation wavelength of 470 nm and emission wavelength of 525 nm. The final assay mixtures contained 5 µL fluorescein-labeled peptide (furnishing a final assay concentration of 10 nM), and 5 µL of increasing amounts of Epsilon protein (final concentrations ranging from 0.05 nM to 5 µM). The negative controls comprised 5 µL fluorescein-labeled peptide (maintaining a final assay concentration of 10 nM) and 5 µL 10 mM HEPES buffer (pH 7.5) containing 0.1% Tween-20. To avoid protein aggregation, Tween-20 (0.1% final concentration) was used as a detergent in all experiments. After adding the fluorescent peptide, the plates were centrifuged (2000 min^−1, 3 min) and shaken briefly (2000 rpm for 10 min at room temperature), and polarization of the emitted fluorescence was directly recorded. In every case, the well containing only the fluorescein-labeled peptide was subtracted from the assay well as background. The polarization values (mP) were plotted as a function of the logarithm of the protein concentration. […] All of the experiments were carried out in duplicate in three independent experiments, and the results are expressed as the mean ± standard deviation (SD).

[2] = molecular target: T1, Epsilon protein (His6-Epsilon); experiment: Competitive FP binding assay: acetylated peptides displace fluorescein-labeled peptide from Epsilon; settings: unlabeled peptide 0.01-100 µM, 10 mM HEPES pH 7.5, 0.1% Tween-20, 384-well, duplicates in three independent experiments ± SD
From the text: The fluorescent high-affinity peptide ligands could be the basis for an especially economic and reliable high-throughput assay, if the fluorescence polarization read-out can be used for the screening of potential ligands that are able to bind to Epsilon in a competitive binding assay. For this purpose, we utilized the unlabeled peptides Ac-Ia and Ac-IIb containing the same amino acid sequence as the initial peptides but with their N-terminus modified by the introduction of an acetyl group. The competitive binding assays were performed by using appropriate amounts of Epsilon protein based on the binding affinity, expressed in terms of the KD value, for the labeled peptides Fluo-Ia and Fluo-IIb. In both cases, the protein concentration was set to the KD value and 5-fold the KD value to study the influence of the protein concentration on the IC50-value of every acetylated peptide. Thus, the Epsilon protein (100 nM or 500 nM final concentration) was treated with Fluo-Ia or Fluo-IIb (10 nM final concentration). After incubation, each mixture was treated with different concentrations of the unlabeled peptides Ac-Ia and Ac-IIb, ranging from 0.01 to 100 µM. […] The ability to identify active compounds (hits) from a particular high-throughput screening (HTS) assay depends largely on the suitability or quality of the assay conditions used in the screening. […]
Figure 5 Competitive binding of the fluorescein-labeled peptides Fluo-Ia and Fluo-IIb to the Epsilon protein in 384-well plates. […] Fluorescence polarization was measured on a SAFIRE II (Tecan, Crailsheim, Germany) microplate reader, using an excitation wavelength of 470 nm and emission wavelength of 525 nm. […]
For the competitive binding assays, unlabeled peptides containing the same amino acid sequence as the previous one but with the N-terminal end modified by the introduction of acetyl group were used. […] The measurements were performed on a SAFIRE II microplate reader (Tecan), using an excitation wavelength of 470 nm and emission wavelength of 525 nm. […]

[3] = 10 nM fluorescein-labeled peptide titrated with Epsilon, 10 mM HEPES pH 7.5, 0.1% Tween-20, no NaCl, ex 470 nm/em 525 nm, EC50 taken as KD (Q close to 1), three independent experiments, n = 3 ± SD, SD, read-out: Binding constant KD

| Compound | Kd [1, 3] [nM] | other results |
| --- | --- | --- |
| CC[C@H](C)[C@H](NC(=O)[C@H](CC(C)C)NC(=O)[C@H](CCC(=O)O)NC(=O)[C@H](CCC(=O)O)NC(=O)[C@H](Cc1c[nH]cn1)NC(=O)[C@H](CC(N)=O)NC(=O)[C@H](CC(C)C)NC(=O)[C@H](CC(N)=O)NC(=O)[C@H](CC(=O)O)NC(=O)c1ccc2c(c1)C(=O)OC21c2ccc(O)cc2Oc2cc(O)ccc21)C(=O)N[C@@H](CCC(N)=O)C(=O)O [Fluo-Ie] (5FAM-DNLNHEELIQ-OH; C-terminus assumed) | 175 ± 8.9 | ΔmP (dynamic range of polarization) ([1]; 10 nM fluorescein-labeled peptide titrated with Epsilon, 10 mM HEPES pH 7.5, 0.1% Tween-20): 115 |
| CC[C@H](C)[C@H](NC(=O)[C@H](CC(C)C)NC(=O)[C@H](CCC(=O)O)NC(=O)[C@H](CCC(=O)O)NC(=O)[C@H](Cc1c[nH]cn1)NC(=O)[C@H](CC(N)=O)NC(=O)[C@H](CC(=O)O)NC(=O)[C@H](CC(N)=O)NC(=O)[C@H](CC(C)C)NC(=O)c1ccc2c(c1)C(=O)OC21c2ccc(O)cc2Oc2cc(O)ccc21)C(=O)N[C@@H](CCC(N)=O)C(=O)O [Fluo-Ia] (5FAM-LNDNHEELIQ-OH) | 74.5 ± 10.5 | Kd ([1]; 10 nM Fluo-Ia, 10 mM HEPES pH 7.5, 0.1% Tween-20, plus 10 mM NaCl, read-out: Binding constant in presence of 10 mM NaCl): 105 nM |
| CC(C)C[C@H](NC(=O)[C@H](CO)NC(=O)[C@@H](NC(=O)[C@H](CC(=O)O)NC(=O)CNC(=O)[C@H](CO)NC(=O)CNC(=O)c1ccc2c(c1)C(=O)OC21c2ccc(O)cc2Oc2cc(O)ccc21)[C@@H](C)O)C(=O)N[C@@H](CCCNC(=N)N)C(=O)N[C@@H](CO)C(=O)N[C@@H](C)C(=O)N[C@@H](CCC(=O)O)C(=O)N[C@@H](Cc1ccccc1)C(=O)N[C@@H](CCC(=O)O)C(=O)N[C@@H](CCC(=O)O)C(=O)N[C@H](C(=O)N[C@@H](CCC(N)=O)C(=O)O)[C@@H](C)O [Fluo-IIc] (5FAM-GSGDTSLRSAEFEETQ-OH) | 134 ± 15 | – |
| Ac-GDTSLRSAEFEETQ [Ac-IIb] | – | IC50 ([2]; 500 nM Epsilon, 10 nM Fluo-IIb, read-out: IC50, competition with Fluo-IIb, 500 nM Epsilon): 15300 ± 2500 nM |
| CC[C@H](C)[C@H](NC(=O)[C@H](CC(C)C)NC(=O)[C@H](CCC(=O)O)NC(=O)[C@H](CCC(=O)O)NC(=O)[C@H](Cc1c[nH]cn1)NC(=O)[C@H](CC(N)=O)NC(=O)[C@H](CC(=O)O)NC(=O)[C@H](CC(N)=O)NC(=O)[C@H](CC(C)C)NC(=O)[C@H](CCCNC(=N)N)NC(=O)[C@H](CC(N)=O)NC(=O)[C@H](CCC(=O)O)NC(=O)[C@H](Cc1ccccc1)NC(=O)c1ccc2c(c1)C(=O)OC21c2ccc(O)cc2Oc2cc(O)ccc21)C(=O)N[C@@H](CCC(N)=O)C(=O)O [Fluo-Ib] (5FAM-FENRLNDNHEELIQ-OH) | 89.5 ± 13.9 | – |
| CC(C)C[C@H](NC(=O)[C@H](CO)NC(=O)[C@@H](NC(=O)[C@H](CC(=O)O)NC(=O)CNC(=O)c1ccc2c(c1)C(=O)OC21c2ccc(O)cc2Oc2cc(O)ccc21)[C@@H](C)O)C(=O)N[C@@H](CCCNC(=N)N)C(=O)N[C@@H](CO)C(=O)N[C@@H](C)C(=O)N[C@@H](CCC(=O)O)C(=O)N[C@@H](Cc1ccccc1)C(=O)N[C@@H](CCC(=O)O)C(=O)N[C@@H](CCC(=O)O)C(=O)N[C@H](C(=O)N[C@@H](CCC(N)=O)C(=O)O)[C@@H](C)O [Fluo-IIb] (5FAM-GDTSLRSAEFEETQ-OH) | 99.5 ± 12.2 | – |
| Ac-LNDNHEELIQ [Ac-Ia] | – | IC50 ([2]; 100 nM Epsilon, 10 nM Fluo-Ia, read-out: IC50, competition with Fluo-Ia, 100 nM Epsilon): 18600 ± 4640 nM; IC50 ([2]; 500 nM Epsilon, 10 nM Fluo-Ia, read-out: IC50, competition with Fluo-Ia, 500 nM Epsilon): 51800 ± 7400 nM |
| CC(C)C[C@H](NC(=O)c1ccc2c(c1)C(=O)OC21c2ccc(O)cc2Oc2cc(O)ccc21)C(=O)N[C@@H](CCCNC(=N)N)C(=O)N[C@@H](CO)C(=O)N[C@@H](C)C(=O)N[C@@H](CCC(=O)O)C(=O)N[C@@H](Cc1ccccc1)C(=O)N[C@@H](CCC(=O)O)C(=O)N[C@@H](CCC(=O)O)C(=O)N[C@H](C(=O)N[C@@H](CCC(N)=O)C(=O)O)[C@@H](C)O [Fluo-IIa] (5FAM-LRSAEFEETQ-OH) | 169 ± 16 | – |
